# Measured values published in patent US7090853B2, “Noscapine derivatives as adjuvant compositions and methods of use thereof” (Emory University, priority 1999, dated 2006).
# Tested on: HL-60 cells
# Assay: Apoptosis of HL-60 cells, DAPI staining of nuclear chromatin
# Format: cell-based
# Conditions: for Apoptic Cell Percentage: 24 hours; for Initiation of apoptosis: DAPI staining
# Protocol: Morphological changes in the nuclear chromatin of HL-60 cells undergoing apoptosis were detected by staining with 4′,6-diamidino-2-phenylindole (DAPI). In brief, 0.5×10^6 to 3×10^6 cells were fixed with 4% glutaraledebyde, 0.2% Triton x-100, in PBS and incubated at room temperature for 10 min., then centrifuged at 1000×g for 10 min., resuspended in 20 μl 0.1% DAPI ethanol. Following 15 min, incubation at room temperature, at 10 μl aliquot was placed on a glass slide, and 400 cells per slide were scored for the incidence of apoptotic chromatin changes with a fluorescence microscope.
# [1] = 20 μM in DMSO, two trials, result for each trial shown
Compound,Apoptic Cell Percentage [1],Apoptic Cell Percentage (50 μM in DMSO),Initiation of apoptosis
"1,3-dihydro-4,5-dimethoxy-1-[1-(8-methoxy-2-methyl-6,7-methylenedioxy-1,2,3,4-tetrahydroisoquinoliyl)]isobenzofuran-BH3 [Compound 3]",37.28%,39%,initiate apoptosis
"COc1ccc2c(c1OC)CO[C@@H]2[C@H]1c2c(cc3c(c2OC)OCO3)CCN1C [Compound 4, 1,3-dihydro-4,5-dimethoxy-1-[1-(8-methoxy-2-methyl-6,7-methylenedioxy-1,2,3,4-tetrahydroixo-quinolinyl)]isobenzofuran]",48.32%,52%,initiate apoptosis
